System: Botrytis cinerea
Assay: Activity against the gray mold pathogen Botrytis cinerea in the microtiter test (Botrci)
Type: cell-based
Settings: single active, day 7 after inoculation
Experimental: The expected efficacies of active compound combinations were determined using Colby's formula (Colby, S. R. “Calculating synergistic and antagonistic responses of herbicide combinations”, Weeds, 15, 20-22, 1967) and compared with the observed efficacies.
E=x+y−x·y/100 • E expected efficacy, expressed in % of the untreated control, when using the mixture of the active compounds A and B at the concentrations a and b • x efficacy, expressed in % of the untreated control, when using the active compound A at the concentration a • y efficacy, expressed in % of the untreated control, when using the active compound B at the concentration b
The active compounds were formulated separately as a stock solution having a concentration of 10 000 ppm in DMSO.
The active compound epoxiconazole was used as a commercial formulation.
Use example No. 1—Activity against the gray mold pathogen Botrytis cinerea in the microtiter test (Botrci)
The stock solution is pipetted onto a microtiter plate (MTP) and diluted to the stated active compound concentration using a malt-based aqueous nutrient medium for fungi. An aqueous spore suspension of Botrytis cinerea was then added. The plates were placed in a water vapor-saturated chamber at temperatures of 18° C. Using an absorption photometer, the MTPs were measured at 405 nm on day 7 after the inoculation. The measured parameters were compared to the growth of the active compound-free control variant and the fungus- and active compound-free blank value to determine the relative growth in % of the pathogens in the individual active compounds.
The visually determined values for the percentage of infected leaf area were initially converted into a mean value and then converted into efficacies in % of the untreated control. An efficacy of 0 means the same degree of infection as in the untreated control, an efficacy of 100 means 0% infection. The expected efficacies for active compound combinations were determined using Colby's formula (Colby, S. R. (Calculating synergistic and antagonistic responses of herbicide combinations”, Weeds, 15, pp. 20-22, 1967) and compared to the observed efficacies.

SMILES	Observed effect (%) (0.016 ppm)	Observed effect (%) (0.063 ppm)	Observed effect (%) (0.004 ppm)	Observed effect (%) (0.25 ppm)
Fc1ccc(C2(Cn3cncn3)OC2c2ccccc2Cl)cc1 (stereo not shown) [Epoxiconazole, epoxiconazole]	15	48		
O=c1c2cc(F)ccc2nc(-n2cncn2)n1-c1ccc(Cl)cc1Cl [Fluquinconazole, fluquinconazole]			0	0

— patent US20090099020A1, “Triazole-Based Fungicidal Mixtures” (BADF Aktiengesellschaft, priority 2005, published 2009)
